Measured values from ChEMBL document CHEMBL1159020, “Phytotoxins of Ascochyta hyalospora, Causal Agent of Lambsquarters Leaf Spot” (1992).
Active and inactive are the calls of the source. No cut-off for these calls is given here.

Key:
[1] = test system: Sida spinosa; test: Phytotoxicity against Prickly sida assessed as leaf necrotic area at 100 ug by detached leaf assay; assay type: functional
[2] = test system: Sorghum halepense; test: Phytotoxicity against Johnson grass assessed as leaf necrotic area at 25 ug by detached leaf assay; assay type: functional
[3] = test system: Nasturtium officinale; test: Phytotoxicity against watercress assessed as leaf necrotic area at 50 ug by detached leaf assay; assay type: functional
[4] = test system: Colletotrichum acutatum; test: Antimicrobial activity against Colletotrichum acutatum at 500 ug by antibiotic disk assay; assay type: functional; conditions: read-out: Diameter of inhibition zone
[5] = test system: Sorghum bicolor; test: Phytotoxicity against Sorghum bicolor assessed as leaf necrotic area at 50 ug by detached leaf assay; assay type: functional
[6] = test system: Pectobacterium carotovorum; test: Antimicrobial activity against Erwinia carotovora at 500 ug by antibiotic disk assay; assay type: functional; conditions: read-out: Diameter of inhibition zone
[7] = test system: Aspergillus flavus; test: Antimicrobial activity against Aspergillus flavus at 500 ug by antibiotic disk assay; assay type: functional; conditions: read-out: Diameter of inhibition zone
[8] = test system: Sorghum halepense; test: Phytotoxicity against Johnson grass assessed as leaf necrotic area at 100 ug by detached leaf assay; assay type: functional
[9] = test system: Datura stramonium; test: Phytotoxicity against Jimsonweed assessed as leaf necrotic area at 50 ug by detached leaf assay; assay type: functional
[10] = test system: Curtobacterium flaccumfaciens; test: Antimicrobial activity against Corynebacterium flaccumfaciens at 1000 ug by antibiotic disk assay; assay type: functional; conditions: read-out: Diameter of inhibition zone
[11] = test system: Curtobacterium flaccumfaciens; test: Antimicrobial activity against Corynebacterium flaccumfaciens at 500 ug by antibiotic disk assay; assay type: functional; conditions: read-out: Diameter of inhibition zone
[12] = test system: Ipomoea; test: Phytotoxicity against Ipomoea sp. assessed as leaf necrotic area at 50 ug by detached leaf assay; assay type: functional
[13] = test system: Poa nemoralis; test: Phytotoxicity against bent grass assessed as leaf necrotic area at 50 ug by detached leaf assay; assay type: functional
[14] = test system: Sorghum bicolor; test: Phytotoxicity against Sorghum bicolor assessed as leaf necrotic area at 25 ug by detached leaf assay; assay type: functional
[15] = test system: Escherichia coli; test: Antimicrobial activity against Escherichia coli at 1000 ug by antibiotic disk assay; assay type: functional; conditions: read-out: Diameter of inhibition zone
[16] = test system: Senna obtusifolia; test: Phytotoxicity against Sicklepod assessed as leaf necrotic area at 50 ug by detached leaf assay; assay type: functional
[17] = test system: Datura stramonium; test: Phytotoxicity against Jimsonweed assessed as leaf necrotic area at 100 ug by detached leaf assay; assay type: functional
[18] = test system: Chenopodium album; test: Phytotoxicity against Lamb's quarters assessed as leaf necrotic area at 25 ug by detached leaf assay; assay type: functional
[19] = test system: Escherichia coli; test: Antimicrobial activity against Escherichia coli at 500 ug by antibiotic disk assay; assay type: functional; conditions: read-out: Diameter of inhibition zone
[20] = test system: Pectobacterium carotovorum; test: Antimicrobial activity against Erwinia carotovora at 1000 ug by antibiotic disk assay; assay type: functional; conditions: read-out: Diameter of inhibition zone
[21] = test system: Ambrosia artemisiifolia; test: Phytotoxicity against rag weed assessed as leaf necrotic area at 25 ug by detached leaf assay; assay type: functional
[22] = test system: Penicillium chrysogenum; test: Antimicrobial activity against Penicillium notatum at 500 ug by antibiotic disk assay; assay type: functional; conditions: read-out: Diameter of inhibition zone
[23] = test system: Agrobacterium tumefaciens; test: Antimicrobial activity against Agrobacterium tumefaciens at 500 ug by antibiotic disk assay; assay type: functional; conditions: read-out: Diameter of inhibition zone
[24] = test system: Datura stramonium; test: Phytotoxicity against Jimsonweed assessed as leaf necrotic area at 25 ug by detached leaf assay; assay type: functional
[25] = test system: Ambrosia artemisiifolia; test: Phytotoxicity against rag weed assessed as leaf necrotic area at 50 ug by detached leaf assay; assay type: functional
[26] = test system: Ambrosia artemisiifolia; test: Phytotoxicity against rag weed assessed as leaf necrotic area at 100 ug by detached leaf assay; assay type: functional
[27] = test system: Penicillium chrysogenum; test: Antimicrobial activity against Penicillium notatum at 1000 ug by antibiotic disk assay; assay type: functional; conditions: read-out: Diameter of inhibition zone
[28] = test system: Sida spinosa; test: Phytotoxicity against Prickly sida assessed as leaf necrotic area at 25 ug by detached leaf assay; assay type: functional
[29] = test system: Nasturtium officinale; test: Phytotoxicity against Nasturtium officinale assessed as leaf necrotic area at 100 ug by detached leaf assay; assay type: functional
[30] = test system: Sorghum bicolor; test: Phytotoxicity against Sorghum bicolor assessed as inhibition of root growth at 1000 ug after 24 hrs root growth assay; assay type: functional, organism-based
[31] = test system: Ipomoea; test: Phytotoxicity against Ipomoea sp. assessed as leaf necrotic area at 100 ug by detached leaf assay; assay type: functional
[32] = test system: Sorghum halepense; test: Phytotoxicity against Johnson grass assessed as leaf necrotic area at 50 ug by detached leaf assay; assay type: functional
[33] = test system: Senna obtusifolia; test: Phytotoxicity against Sicklepod assessed as leaf necrotic area at 25 ug by detached leaf assay; assay type: functional
[34] = test system: Aspergillus flavus; test: Antimicrobial activity against Aspergillus flavus at 1000 ug by antibiotic disk assay; assay type: functional; conditions: read-out: Diameter of inhibition zone
[35] = test system: Chenopodium album; test: Phytotoxicity against Lamb's quarters assessed as leaf necrotic area at 50 ug by detached leaf assay; assay type: functional
[36] = test system: Sorghum bicolor; test: Phytotoxicity against Sorghum bicolor assessed as leaf necrotic area at 100 ug by detached leaf assay; assay type: functional
[37] = test system: Poa nemoralis; test: Phytotoxicity against bent grass assessed as leaf necrotic area at 25 ug by detached leaf assay; assay type: functional
[38] = test system: Chenopodium album; test: Phytotoxicity against Lamb's quarters assessed as electrolyte leakage at 500 to 1000 ug/ml; assay type: functional, organism-based
[39] = test system: Chenopodium album; test: Phytotoxicity against Lamb's quarters assessed as leaf necrotic area at 100 ug by detached leaf assay; assay type: functional
[40] = test system: Colletotrichum acutatum; test: Antimicrobial activity against Colletotrichum acutatum at 1000 ug by antibiotic disk assay; assay type: functional; conditions: read-out: Diameter of inhibition zone
[41] = test system: Agrobacterium tumefaciens; test: Antimicrobial activity against Agrobacterium tumefaciens at 1000 ug by antibiotic disk assay; assay type: functional; conditions: read-out: Diameter of inhibition zone
[42] = test system: Nasturtium officinale; test: Phytotoxicity against watercress assessed as leaf necrotic area at 25 ug by detached leaf assay; assay type: functional
[43] = test system: Senna obtusifolia; test: Phytotoxicity against Sicklepod assessed as leaf necrotic area at 100 ug by detached leaf assay; assay type: functional
[44] = test system: Sida spinosa; test: Phytotoxicity against Prickly sida assessed as leaf necrotic area at 50 ug by detached leaf assay; assay type: functional
[45] = test system: Ipomoea; test: Phytotoxicity against Ipomoea sp. assessed as leaf necrotic area at 25 ug by detached leaf assay; assay type: functional
[46] = test system: Nasturtium officinale; test: Phytotoxicity against watercress assessed as leaf necrotic area at 10 ug by detached leaf assay; assay type: functional
[47] = test system: Ipomoea; test: Phytotoxicity against Ipomoea sp. assessed as leaf necrotic area at 10 ug by detached leaf assay; assay type: functional
[48] = test system: Senna obtusifolia; test: Phytotoxicity against Sicklepod assessed as leaf necrotic area at 10 ug by detached leaf assay; assay type: functional
[49] = test system: Datura stramonium; test: Phytotoxicity against Jimsonweed assessed as leaf necrotic area at 10 ug by detached leaf assay; assay type: functional
[50] = test system: Chenopodium album; test: Phytotoxicity against Lamb's quarters assessed as leaf necrotic area at 10 ug by detached leaf assay; assay type: functional
[51] = test system: Sorghum halepense; test: Phytotoxicity against Johnson grass assessed as leaf necrotic area at 10 ug by detached leaf assay; assay type: functional
[52] = test system: Sida spinosa; test: Phytotoxicity against Prickly sida assessed as leaf necrotic area at 10 ug by detached leaf assay; assay type: functional
[53] = test system: Ambrosia artemisiifolia; test: Phytotoxicity against rag weed assessed as leaf necrotic area at 10 ug by detached leaf assay; assay type: functional
[54] = test system: Poa nemoralis; test: Phytotoxicity against bent grass assessed as leaf necrotic area at 10 ug by detached leaf assay; assay type: functional
[55] = test system: Sorghum bicolor; test: Phytotoxicity against Sorghum bicolor assessed as leaf necrotic area at 10 ug by detached leaf assay; assay type: functional

CCC(C)c1occ2c(=O)c(C(=O)O)c(O)cc-2c1C (configuration not stated) [ASCOCHYTINE]
Activity [1]: 35 mm2
Activity [2]: 10 mm2
Activity [3]: 5 mm2
zone of inhibition at 500 µg/disc [4]: 18 mm
Activity [5]: 18 mm2
zone of inhibition at 500 µg/disc [6]: 0 mm
zone of inhibition at 500 µg/disc [7]: 0 mm
Activity [8]: 24 mm2
Activity [9]: 15 mm2
zone of inhibition at 1000 µg/disc [10]: 42 mm
zone of inhibition at 500 µg/disc [11]: 30 mm
Activity [12]: 9 mm2
Activity [13]: 8 mm2
Activity [14]: 12 mm2
zone of inhibition at 1000 µg/disc [15]: 10 mm
Activity [16]: 13 mm2
Activity [17]: 22 mm2
Activity [18]: 5 mm2
zone of inhibition at 500 µg/disc [19]: 8 mm
zone of inhibition at 1000 µg/disc [20]: 0 mm
Activity [21]: 5 mm2
zone of inhibition at 500 µg/disc [22]: 0 mm
zone of inhibition at 500 µg/disc [23]: 26 mm
Activity [24]: 11 mm2
Activity [25]: 5 mm2
Activity [26]: 8 mm2
zone of inhibition at 1000 µg/disc [27]: 10 mm
Activity [28]: 6 mm2
Activity [29]: 20 mm2
Activity [30]: Active
Activity [31]: 9 mm2
Activity [32]: 10 mm2
Activity [33]: 9 mm2
zone of inhibition at 1000 µg/disc [34]: 0 mm
Activity [35]: 11 mm2
Activity [36]: 28 mm2
Activity [37]: 7 mm2
Activity [38]: Active
Activity [39]: 19 mm2
zone of inhibition at 1000 µg/disc [40]: 20 mm
zone of inhibition at 1000 µg/disc [41]: 35 mm
Activity [42]: 2 mm2
Activity [43]: 16 mm2
Activity [44]: 20 mm2
Activity [45]: 8 mm2

CCC(C)c1oc(CC(C)O)cc(=O)c1C (configuration not stated) [HYALOPYRONE]
Activity [1]: 13 mm2
Activity [3]: 5 mm2
zone of inhibition at 500 µg/disc [4]: 16 mm
Activity [5]: 18 mm2
zone of inhibition at 500 µg/disc [6]: 0 mm
zone of inhibition at 500 µg/disc [7]: 10 mm
Activity [8]: 15 mm2
Activity [9]: 0 mm2
zone of inhibition at 500 µg/disc [11]: 12 mm
Activity [12]: 5 mm2
Activity [13]: 6 mm2
Activity [16]: 3 mm2
Activity [17]: 3 mm2
zone of inhibition at 500 µg/disc [19]: 0 mm
zone of inhibition at 500 µg/disc [22]: 12 mm
zone of inhibition at 500 µg/disc [23]: 0 mm
Activity [25]: 10 mm2
Activity [26]: 18 mm2
Activity [29]: 7 mm2
Activity [31]: 8 mm2
Activity [32]: 11 mm2
Activity [35]: 4 mm2
Activity [36]: 23 mm2
Activity [39]: 5 mm2
Activity [43]: 4 mm2
Activity [44]: 7 mm2

C[C@H]1OC(=O)/C=C\C(=O)/C=C/[C@H]2O[C@@H]12 [PYRENOLIDE A]
Activity [46]: 0 mm2
Activity [2]: 7 mm2
Activity [3]: 1 mm2
Activity [47]: 0 mm2
zone of inhibition at 500 µg/disc [4]: 21 mm
Activity [5]: 10 mm2
zone of inhibition at 500 µg/disc [6]: 0 mm
Activity [48]: 0 mm2
zone of inhibition at 500 µg/disc [7]: 0 mm
Activity [9]: 2 mm2
zone of inhibition at 1000 µg/disc [10]: 34 mm
zone of inhibition at 500 µg/disc [11]: 22 mm
Activity [49]: 0 mm2
Activity [12]: 3 mm2
Activity [13]: 0 mm2
Activity [14]: 8 mm2
zone of inhibition at 1000 µg/disc [15]: 0 mm
Activity [16]: 2 mm2
Activity [18]: 5 mm2
zone of inhibition at 500 µg/disc [19]: 0 mm
zone of inhibition at 1000 µg/disc [20]: 0 mm
Activity [21]: 3 mm2
zone of inhibition at 500 µg/disc [22]: 16 mm
Activity [50]: 2 mm2
zone of inhibition at 500 µg/disc [23]: 4 mm
Activity [24]: 0 mm2
Activity [25]: 6 mm2
Activity [51]: 3 mm2
zone of inhibition at 1000 µg/disc [27]: 22 mm
Activity [28]: 0 mm2
Activity [30]: Active
Activity [52]: 0 mm2
Activity [32]: 18 mm2
Activity [33]: 0 mm2
zone of inhibition at 1000 µg/disc [34]: 0 mm
Activity [35]: 13 mm2
Activity [53]: 0 mm2
Activity [37]: 0 mm2
Activity [38]: Active
Activity [54]: 0 mm2
Activity [55]: 2 mm2
zone of inhibition at 1000 µg/disc [40]: 32 mm
zone of inhibition at 1000 µg/disc [41]: 22 mm
Activity [42]: 0 mm2
Activity [44]: 4 mm2
Activity [45]: 0 mm2
